Experimental data as given in patent publication US9700525B2, “Continuous local slow-release of therapeutics for head and neck problems and upper aerodigestive disorders” (Board of Supervisors of Louisiana State University and …, priority 2008, dated 2017).

Tests used:
[1] = tested on: mTOR pathway markers; settings: tumors and PBMCs of HNSCC patients; cited from earlier work
[2] = tested on: Akt/mTOR pathway; experiment: Model of minimal residual disease; assay type: in vivo
[3] = tested on: HNSCC cell lines; experiment: Inhibition of cell proliferation in HNSCC cell lines; assay type: cell-based
Description: While curcumin can be used to treat these cancers, other compounds that act on these pathways may also be useful in treating these cancers and it should be readily recognized that such compounds could also be delivered by including in the formulations described herein.

[4] = tested on: normal fibroblast cell line CCL110; experiment: Effect on proliferation of normal fibroblast cell line; assay type: cell-based
[5] = tested on: prostate cancer xenograft; settings: p.o. gavage 5 mg/day, 5 days/week for 4 weeks; cited from earlier work
[6] = following oral administration; cited from earlier work
[7] = tested on: SCC40 xenografts; experiment: Akt/mTOR pathway markers in SCC40 xenografts of treated mice; assay type: in vivo; settings: mice with SCC40 xenografts treated with curcumin
[8] = tested on: NFκB and Akt/mTOR pathways; experiment: Modulation of NFκB and Akt/mTOR pathways in cell lines (western blot); assay type: cell-based
[9] = tested on: tumor cells; experiment: Chemoprevention model: pre-treatment before tumor cell injection, tumor volumes; assay type: in vivo, Balb/c nu/nu mice; settings: pre-treated 4 days prior to injecting tumor cells
Procedure: Balb/c nu/nu mice were randomized into treatment groups. […] Tumors were measured over approximately three weeks. […] ANOVA analysis. […] This also points to its role as a chemopreventive agent rather than a therapeutic agent.

[10] = tested on: DMBA-induced oral tumors; settings: 10 μmol topically 3 times/week for 24 weeks; cited from earlier work
[11] = tested on: TPA-induced tumors; settings: topical application of 10 μmol twice weekly; cited from earlier work

CO[C@H]1C[C@@H]2CC[C@@H](C)[C@@](O)(O2)C(=O)C(=O)N2CCCC[C@H]2C(=O)O[C@H]([C@H](C)C[C@@H]2CC[C@@H](OC(=O)C(C)(CO)CO)[C@H](OC)C2)CC(=O)[C@H](C)/C=C(\C)[C@@H](O)[C@@H](OC)C(=O)[C@H](C)C[C@H](C)/C=C/C=C/C=C/1C [CCI-779, temsirolimus]
modulation of mTOR pathway markers [1]: modulation of these markers | survival [2]: improve survival | tumor formation [2]: inhibit tumor formation

COc1cc(/C=C/C(=O)CC(=O)/C=C/c2ccc(O)c(OC)c2)ccc1O [curcumin]
growth inhibitory effect ([3]; all 10 HNSCC cell lines tested to date): growth inhibitory effects | growth inhibitory effect ([3]; three HNSCC cell lines, 10 μM, 48 hours): significant growth inhibitory effects | concentration giving consistent inhibition of cell proliferation ([3]; variety of HNSCC cell lines, in vitro): less than 10 μM | dose required to see effects [4]: 20 to 40 µM | inhibition of growth of prostate cancer xenograft [5]: ~50% | bioavailability [6]: low bioavailability | change in pAkt [7]: significant decrease | change in pS6 [7]: significant decrease | change in pNFκB ([8]; PCI15a cells, 10 μM, 24 and 48 hours): no change | change in pAkt ([8]; PCI15a cells, 10 μM, 48 hours): down-regulated | change in pS6 downstream of mTOR ([8]; PCI15a cells, 10 μM, 48 hours): down-regulated | change in the Akt/mTOR pathway ([8]; SCC40 cells, 10 μM): no change | change in pNFκB ([8]; SCC40 cells, 10 μM, 48 hours): down-regulation | modulation of the Akt/mTOR pathway ([8]; SCC066 cells, 10 μM): did not show any modulation | change in pNFκB or Akt/mTOR ([8]; normal fibroblast cell line CCL110, 10 μM): no decrease | difference in tumor volumes vs control (vehicle treated) ([9]; 10 mg): no significant difference | difference in tumor volumes vs control (vehicle treated) ([9]; 15 mg, about three weeks): statistically significant difference | reduction of the number of DMBA-induced oral tumors [10]: ~40% | inhibition of the number of tumors per mouse [11]: 98%
